In US11040036B2, “Pyruvate kinase activators for use in treating blood disorders” (Agios Pharmaceuticals, Inc., priority 2017, dated 2021) one finds AC50 data, which are given here for 30 molecules.

Assay [1] has as its target T1, wild type PKR (Homo sapiens, UniProt P30613). As to the kind of experiment: PKR mutant assay (AC50), wild type PKR. In kind it is biochemical. To be noted: wild type PKR enzyme; read-out: PKR WT AC50. A digest of the protocol: (§1)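 Compounds were tested from 100 μM final, 3-fold over 11 points, and held 60 min at room temperature with enzyme (40-400 ng/well wild-type, R510Q or K410E PKR). ADP 0.2-1.65 mM then started the reaction, with PEP 0.1-0.5 mM in pH 7.5 Tris/KCl/MgCl2 buffer. LDH/NADH (180 μM) coupled read-out was taken as A340 change, fitted to AC50.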

For assay [2], the target named is PKR K410E (Homo sapiens, UniProt P30613, K410E). As to the kind of experiment: PKR mutant assay (AC50), PKR K410E. In kind it is biochemical. The conditions noted are these: PKR K410E mutant enzyme. A digest of the protocol: as §1
Assay [3] has as its target PKR R510Q (Homo sapiens, UniProt P30613, R510Q). As to the kind of experiment: PKR mutant assay (AC50), PKR R510Q. In kind it is biochemical. The conditions noted are these: PKR R510Q mutant enzyme; read-out: PK R510Q AC50. A digest of the protocol: as §1
In assay [4] the target is T1, wild type PKR. Briefly: Cell based ATP assay in purified red blood cells. Set-up: endogenous in cells; host or cells: purified red blood cells from blood of healthy volunteers. To be noted: RBCs, overnight at 37° C., ATP levels by Cell-Titer-Glo. A digest of the protocol:
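ATP content was measured by CellTiter-Glo after overnight exposure to compound at 37 °C. Cells were purified red blood cells from healthy donors, filtered to remove leukocytes and suspended at 1×10^7 cells/mL in AGAM medium. Compounds were serially diluted 1:4, with 0.1% DMSO final.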

T1 sequence (P30613 whole entry): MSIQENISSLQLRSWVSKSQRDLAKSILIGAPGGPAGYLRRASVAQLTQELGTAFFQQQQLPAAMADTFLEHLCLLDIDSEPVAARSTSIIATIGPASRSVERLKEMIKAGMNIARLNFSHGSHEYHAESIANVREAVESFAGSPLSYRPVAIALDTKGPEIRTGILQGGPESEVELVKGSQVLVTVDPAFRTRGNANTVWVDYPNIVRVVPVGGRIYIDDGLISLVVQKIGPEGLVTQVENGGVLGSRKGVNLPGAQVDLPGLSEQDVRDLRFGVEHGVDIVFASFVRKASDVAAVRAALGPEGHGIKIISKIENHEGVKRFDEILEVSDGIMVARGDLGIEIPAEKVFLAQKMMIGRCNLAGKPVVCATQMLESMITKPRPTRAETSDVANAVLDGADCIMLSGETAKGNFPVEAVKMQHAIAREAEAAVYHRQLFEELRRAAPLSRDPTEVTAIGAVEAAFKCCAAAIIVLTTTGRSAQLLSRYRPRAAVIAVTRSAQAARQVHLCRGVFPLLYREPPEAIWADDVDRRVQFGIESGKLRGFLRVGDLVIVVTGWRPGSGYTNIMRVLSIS
Sequence of PKR R510Q (P30613 whole entry R510Q): as the sequence (P30613 whole entry) above, with R510Q counted along it
Sequence of PKR K410E (P30613 whole entry K410E): as the sequence (P30613 whole entry) above, with K410E counted along it

As a reminder, the AC50 is the concentration giving half of the maximal activity seen. Consider `Cn1c2nc(Cc3cc[nH]n3)sc2c2cnn(Cc3ccn[nH]3)c(=O)c21`, for which the AC50 was less than 300 nM in assay [1], less than 300 nM in assay [2], less than 300 nM in assay [3] and not above 1000 nM in assay [4].
In the case of `Cn1c2nc(Cc3cc[nH]n3)sc2c2cnn(Cc3csc(CO)n3)c(=O)c21`, the AC50 is less than 300 nM in assay [1], less than 300 nM in assay [2], less than 300 nM in assay [3] and not above 1000 nM in assay [4].
On to `Cn1c2nc(Cc3cc[nH]n3)sc2c2cnn(Cc3nc[nH]n3)c(=O)c21`, for which the AC50 in assay [1] is less than 300 nM; in assay [2] it was less than 300 nM; in assay [3], less than 300 nM; in assay [4], not above 1000 nM.
Take `Cc1scnc1Cn1ncc2c3sc(Cc4cc[nH]n4)nc3n(C)c2c1=O`: the concentration at half-maximal activity (AC50) was less than 300 nM in assay [1], less than 300 nM in assay [2], less than 300 nM in assay [3] and not above 1000 nM in assay [4].
For the molecule `Cn1c2nc(Cc3cscn3)sc2c2cnn(Cc3nccs3)c(=O)c21`, the AC50 is less than 300 nM in assay [1], less than 300 nM in assay [2], less than 300 nM in assay [3] and not above 1000 nM in assay [4].
With `Cn1c2nc(Cc3cc[nH]n3)sc2c2cnn(Cc3ncc[nH]3)c(=O)c21`, the half-maximal activity concentration (AC50) was less than 300 nM in assay [1], less than 300 nM in assay [2], less than 300 nM in assay [3] and not above 1000 nM in assay [4].
Turning to `Cn1c2nc(Cc3csc(CO)n3)sc2c2cnn(Cc3cc[nH]n3)c(=O)c21`, the AC50 in assay [1] was less than 300 nM; in assay [2], less than 300 nM; in assay [3], less than 300 nM; in assay [4] it was not above 1000 nM.
Regarding `Cn1c2nc(Cc3ccccn3)sc2c2cnn(Cc3nccs3)c(=O)c21`, the AC50 was less than 300 nM in assay [1], less than 300 nM in assay [2], less than 300 nM in assay [3] and not above 1000 nM in assay [4].
Take `Cn1c2nc(Cc3ccccn3)sc2c2cnn(Cc3cc[nH]n3)c(=O)c21`: the AC50 in assay [1] was less than 300 nM; in assay [2], less than 300 nM; in assay [3], less than 300 nM; in assay [4], not above 1000 nM.
Take `Cn1c2nc(Cc3csc(CO)n3)sc2c2cnn(Cc3nccs3)c(=O)c21`: the AC50 in assay [1] was less than 300 nM; in assay [2], less than 300 nM; in assay [3], less than 300 nM; in assay [4], not above 1000 nM.
As for `Cn1c2nc(Cc3cc[nH]n3)sc2c2cnn(Cc3ncns3)c(=O)c21`, the AC50 in assay [1] was less than 300 nM; in assay [2], less than 300 nM; in assay [3] it was less than 300 nM; in assay [4], not above 1000 nM.
As for `Cn1c2nc(Cc3cscn3)sc2c2cnn(Cc3csc(N)n3)c(=O)c21`, the concentration at half-maximal activity (AC50) was less than 300 nM in assay [1], less than 300 nM in assay [2], less than 300 nM in assay [3] and not above 1000 nM in assay [4].
Consider `Cn1c2nc(Cc3cscn3)sc2c2cnn(Cc3cscn3)c(=O)c21`, for which the AC50 in assay [1] was less than 300 nM; in assay [2] it was less than 300 nM; in assay [3], less than 300 nM; in assay [4], not above 1000 nM.
Consider `Cn1c2nc(Cc3c[nH]cn3)sc2c2cnn(Cc3ncsc3C(F)(F)F)c(=O)c21`, for which the AC50 was more than 800 nM in assay [1], more than 800 nM in assay [2], more than 800 nM in assay [3] and more than 1000 nM in assay [4].
Take `Cn1c2nc(Cc3c[nH]cn3)sc2c2cnn(Cc3ncsc3Cl)c(=O)c21`: the AC50 in assay [1] was less than 300 nM; in assay [2] it was less than 300 nM; in assay [3] it was less than 300 nM; in assay [4] it was not above 1000 nM.
Consider `Cn1ccc(Cn2ncc3c4sc(Cc5cscn5)nc4n(C)c3c2=O)n1`, for which the AC50 in assay [1] is less than 300 nM; in assay [2], less than 300 nM; in assay [3] it was less than 300 nM; in assay [4], not above 1000 nM.
Turning to `Cn1c2nc(Cc3ccccn3)sc2c2cnn(Cc3csc(N)n3)c(=O)c21`, the AC50 in assay [1] is less than 300 nM; in assay [2] it was less than 300 nM; in assay [3], less than 300 nM; in assay [4], not above 1000 nM.
As to `Cn1c2nc(Cc3ccccn3)sc2c2cnn(Cc3cscn3)c(=O)c21`, the AC50 in assay [1] is less than 300 nM; in assay [2] it was less than 300 nM; in assay [3] it was less than 300 nM; in assay [4], not above 1000 nM.
Turning to `Cn1c2nc(Cc3cscn3)sc2c2cnn(Cc3cc[nH]n3)c(=O)c21`, the AC50 in assay [1] was less than 300 nM; in assay [2], less than 300 nM; in assay [3], less than 300 nM; in assay [4], not above 1000 nM.
For the molecule `Cn1c2nc(Cc3c[nH]nn3)sc2c2cnn(Cc3nccs3)c(=O)c21`, the AC50 in assay [1] is 301 to 800 nM; in assay [2], less than 300 nM; in assay [3], less than 300 nM; in assay [4] it was not above 1000 nM.
Consider `Cn1ccc(Cn2ncc3c4sc(Cc5ccccn5)nc4n(C)c3c2=O)n1`, for which the AC50 in assay [1] is less than 300 nM; in assay [2], less than 300 nM; in assay [3], less than 300 nM; in assay [4], not above 1000 nM.
Regarding `Cn1ccc(Cn2ncc3c4sc(Cc5csc(CO)n5)nc4n(C)c3c2=O)n1`, the AC50 in assay [1] is less than 300 nM; in assay [2] it was less than 300 nM; in assay [3], less than 300 nM; in assay [4] it was not above 1000 nM.
As for `Cn1c2nc(Cc3cc[nH]n3)sc2c2cnn(Cc3cocn3)c(=O)c21`, the AC50 was less than 300 nM in assay [1], less than 300 nM in assay [2], less than 300 nM in assay [3] and not above 1000 nM in assay [4].
With `Cn1c2nc(Cc3c[nH]nn3)sc2c2cnn(Cc3cscn3)c(=O)c21`, the concentration at half-maximal activity (AC50) was less than 300 nM in assay [1], less than 300 nM in assay [2], less than 300 nM in assay [3] and not above 1000 nM in assay [4].
As for `Cn1c2nc(Cc3ccccn3)sc2c2cnn(Cc3c[nH]nn3)c(=O)c21`, the concentration at half-maximal activity (AC50) in assay [1] was less than 300 nM; in assay [2], less than 300 nM; in assay [3] it was less than 300 nM; in assay [4], not above 1000 nM.
For `Cn1c2nc(Cc3cc[nH]n3)sc2c2cnn(Cc3ncsc3N)c(=O)c21`, the half-maximal activity concentration (AC50) is less than 300 nM in assay [1], less than 300 nM in assay [2], less than 300 nM in assay [3] and not above 1000 nM in assay [4].
Turning to `Cn1c2nc(Cc3ncsc3Br)sc2c2cnn(Cc3cc[nH]n3)c(=O)c21`, the AC50 in assay [1] was less than 300 nM; in assay [2] it was less than 300 nM; in assay [3], less than 300 nM; in assay [4], not above 1000 nM.
With `Cn1ccc(Cn2ncc3c4sc(Cc5c[nH]nn5)nc4n(C)c3c2=O)n1`, the AC50 in assay [1] was less than 300 nM; in assay [2], less than 300 nM; in assay [3], less than 300 nM; in assay [4], not above 1000 nM.
Consider `Cn1c2nc(Cc3c[nH]nn3)sc2c2cnn(Cc3cc[nH]n3)c(=O)c21`, for which the AC50 was less than 300 nM in assay [1], less than 300 nM in assay [2], less than 300 nM in assay [3] and not above 1000 nM in assay [4].
`Cn1c2nc(Cc3cc[nH]n3)sc2c2cnn(Cc3nncs3)c(=O)c21`: the AC50 is less than 300 nM in assay [1], less than 300 nM in assay [2], less than 300 nM in assay [3] and not above 1000 nM in assay [4].
